The text below walks through data of patent US11707557B2, “Compositions and devices incorporating water-insoluble therapeutic agents and methods of the use thereof” (COOK MEDICAL TECHNOLOGIES LLC, priority 2014, dated 2023).

For data set [1] the following is noted: 24 h.
Data set [2] in a line: Drug concentrations obtained using EGCG at 50 mg per ml (microscopic check for particulates). The format is physicochemical. How it is done: EGCG at 50 mg/ml and drug at approximately 250 micrograms per ml were dissolved in the listed solvent and dried down in a test tube under nitrogen. 1 ml of water was added, followed by vortexing. The solutions were examined for particulate matter under a microscope. If no particulates were present, the process was repeated with a higher drug amount. All the tested drugs remained in solution at the listed concentrations except for nystatin and hesperidin.

A short description of data set [3]: Drug release from injectable PG:gallate pastes (60:40) into PBS. The format is physicochemical. The following applies: 60:40 PG:EGCG or PG:tannic acid, 2% w/w drug, PBS pH 7.4, 37° C. On the procedure: Methods: 60:40% w/w PG:EGCG or PG:tannic acid was used in these studies. 588 mg of propylene glycol was weighed into a 20 mL glass vials and 392 of EGCG or tannic acid was added followed by vortexing to distribute and dissolve the gallates. The vials were warmed to 60° C. and vortexed until all the contents were in solution. At this time 20 mg of drug was added (2% w/w) and vortexed until in solution. The following drugs were used: paclitaxel, docetaxel, retinoic acid, amphotericin B, and curcumin. 100 mg of each paste was weighed into the base of a 15 mL glass test tube and 10 mL of phosphate buffered saline was added at pH 7.4 and the tubes were incubated at 37° C. for certain times. All 10 mL of the PBS release media was removed and 1 mL analyzed by HPLC for drug content. 10 mL of fresh PBS was then added to all tubes

The test system of data set [4] is Caco2 cells. Nature of the data set: Transport of curcumin through Caco2 cells (transwell). The format is in vitro ADME, human. Conditions: 3 hours. From the text: Caco2 cells are continuous cells of human epithelial colorectal adenocarcinoma cells. They contain drug efflux proteins and may be used in the same way that MDCK-MDR cells are, i.e. to measure drug accumulation in cells that have the ability to efflux drugs.
Caco2 cells (ATCC, VA, USA) are proliferating gut epithelial cells used throughout the pharmaceutical sciences as a model of oral drug availability. These cells may be grown in cell culture on membranes where they align with an apical external surface (equivalent to the gut lumen) and a basolateral lower surface that is equivalent to the cell side adjacent to the blood capillaries. When an EGCG curcumin solution was placed in the upper portion of a transwell containing these cells on a membrane for three hours, large amounts of curcumin either passed through or accumulated within the caco2 cells.
Caco2 cells were seeded onto 0.3 um transwell membranes and left to grow to confluence for 3 days. A conductivity electrode measured the Transcellular electrical resistance value over the next few days and when it had reached […] (tight junctions established) the experiment began. A solution of curcumin (250 microgram per ml) in EGCG (25 mg per ml) in Hanks buffer pH 7.4. was added to the top well for 3 hours. […] All solutions were then analyzed for curcumin content using uv-vis absorbance spectroscopy at 430 nm.

The nature of data set [5]: physchem.
In data set [6] the test system is pig skin. How it is done:
Various gallate-containing drug formulations were prepared and applied to ex vivo pig skin samples. Fresh pig skin was obtained from a local butcher, processed within three hours and then frozen. For experiments, the skin was slowly thawed, excess fat removed from the base, and cut into 1×2 cm squares. These squares were mounted and clamped on Franz diffusion cells, which kept the tissue moist and isolated and exposed a 6 mm diameter of the upper skin surface for the application of a drug loaded formulation. Skin samples were then frozen and later cryosectioned in 50 μm slices. The drug in the slices was extracted and measured by HPLC or radioactive doping methods. A drug depth profile was then established for each drug.
1. Formulations containing a drug and a gallate. The drugs were dissolved in ethanol at various concentrations along with either EGCG or TA (500 mg/mL). Each solution was pipetted into 6×5 mm diameter aluminum cups (approximately 3 mm in height) by filling and allowing the ethanol to evaporate at 50° C. until all the solution was used up (80 mg per cup).
2. Formulations containing a drug, propylene glycol (“PG”) and a gallate. 300 mg of propylene glycol was mixed with 200 mg of EGCG or TA until dissolved. Various amounts of drug were added to this mixture and dissolved. 80 mg of the resulting viscous solution was weighed into 6×5 mm aluminum cups.
3. Control Formulations. Control formulations were prepared using Glaxal base and Plogel. Glaxal base is a cream used by compounding pharmacists to manufacture topical formulations of drugs. Plogel is an alternative used for dermal formulations. […] Drug was added to a known weight of Glaxal or Plogel and levigated to produce a standard drug dispersion. These formulations were prepared the evening before the experiment. For some drugs, radioactive drug (where available) was also added as a doping additive to facilitate quantitation in tissues.
Eutectics: In some cases, gallate containing compounds and drugs were formulated in eutectic mixtures. These included a 60:40 (% w/w) mixture of menthol with ibuprofen. These agents acted as a carrier for retinoic acid, which was then dissolved in this liquid. The 3-drug eutectic/solution was then blended into the CMC/poloxamer emulsion containing EGCG (2.5%). […] The emulsion was stabilized with poloxamer.
Example 29. Pig skin studies. Aluminum cups containing drug formulations were inverted on top of the pig skin in the Franz diffusion cell so that the formulation contents were in contact with the skin. […]
Analysis. […] The amount of drug in each group of skin sections was then determined using HPLC methods, or by radioactivity counting on a liquid scintillation counter. The amount of drug in each group of skin sections was expressed as μg/g or mg/g of tissue.

Data set [7] is described as follows: Drug in EGCG or tannic acid films (optical microscopy, DSC). The format is physicochemical. On the procedure: Thin films of drugs were cast in either EGCG or tannic acid from ethanol solutions. Drugs in either EGCG or tannic acid were dissolved in ethanol at a final total concentration of 20% w/v and spot pipetted in repeated 10 microliter volumes and allowed to dry between spotting. This allowed a thin film to accumulate and dry. Some solutions contained either glycerol or polyethylene glycol 300 at 10% or 20% w/w to EGCG or tannic acid. The films were allowed to dry and examined by optical microscopy for drug precipitation. Films were allow analyzed by differential scanning calorimetry (DSC) for identify drug crystals.

Values after ≈ are worked out from the molar mass of the structure shown.

As for `COc1cc(/C=C/C(=O)CC(=O)/C=C/c2ccc(O)c(OC)c2)ccc1O` [curcumin], in data set [1], the “stability of EGCG solutions of the drug” value is “stable for 24 hours”. Also, in data set [1], the “stability of tannic acid solutions of the drug” value is on record as “stable for 24 hours”. Moreover, the Visual appearance result in data set [2] is “clear”. In data set [2] (1 ml of water), the “Drug Concentration” value is reported as 250 microgram/ml. Also, the Particulates present entry in data set [2] (under a microscope) is listed as “no”. In addition, the “drug release from PG:gallate paste” value in data set [3] was “relatively controlled release of the drug over 24 hours”. In data set [4] (curcumin 250 microgram per ml in EGCG 25 mg per ml, versus diblock copolymer), the “curcumin uptake and transport through the cells” value is given as “much higher levels”. Besides, in data set [4] (diblock copolymer micellar solution, 250 micrograms/ml), the “curcumin passing through and entering the cells” value is given as “small amount”. Besides, the solubility was roughly 4700 µg/mL (≈ 12.8 mM) in data set [5] (aqueous with cosolvent or surfactant or cyclodextrin, thermodynamic from solid, drug concentration solubilised at maximum EGCG concentration); roughly 12000 µg/mL (≈ 32.6 mM) in data set [5] (aqueous with cosolvent or surfactant or cyclodextrin, thermodynamic from solid, drug concentration solubilised at maximum tannic acid concentration); less than 1 µg/mL in data set [5] (water, free solubility in water). In addition, the “drug uptake by pig skin” value in data set [6] is reported as “essentially no drug uptake”. In data set [7], the “drug loading at which drug precipitated out of film” value was “approximately 5 % w/w”.

The term solubility denotes how much of the substance goes into solution per volume. Lower therefore signals a poorly soluble substance.
